From patent publication US12257247B2 (Monte Rosa Therapeutics AG, priority 2023, dated 2025)
Where two headings read alike, the source gives them in different places.

Biological target: T1, VAV1 (Homo sapiens, UniProt P15498+Q96SW2)
T1 construct: A heterozygous VAV1 C-terminal HiBiT knock-in pool was generated at Monte Rosa Therapeutics from a clonal Jurkat cell; endogenous in cells; host or cells: Jurkat clone stably expressing LgBiT, homozygous GSPT1-G575N; heterozygous VAV1-HiBiT knock-in pool
Assay: VAV1 degradation activity, VAV1-HiBiT knock-in Jurkat luminescence assay (Example A, Table 1)
Format: cell-based
Details: VAV1-HiBiT knock-in Jurkat cells, luminescence read at 6 and 24 hours; for Dmax: Jurkat
Outline: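 Luminescence was measured at 6 and 24 h after adding compound (10 μM stock) to VAV1-HiBiT knock-in Jurkat cells, which had been pre-incubated ~16 h at 37° C. in RPMI/10% FBS containing Endurazine. EC50 values came from control-normalised responses fitted to a 3-parameter logistic model with hillslope fixed at 1.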

[1] = read-out: VAV1 DC50 (nM), class

| Dmax (read-out: VAV1 Dmax %) | Dmax (read-out: VAV1 Dmax %, class) | DC50 (read-out: VAV1 DC50) | DC50 [1] | Compound |
| --- | --- | --- | --- | --- |
| 89.3% | 60 to 90% | 4.48 nM | ≤ 100 nM | CN1Cc2cccc(-c3ccc(-c4cccc(C5CCC(=O)NC5=O)c4Cl)cc3)c2C1=O (stereo not drawn) [Compound 439, 3-(2-chloro-4′-(2-methyl-3-oxoisoindolin-4-yl)-[1,1′-biphenyl]-3-yl)piperidine-2,6-dione] |
| 94.3% | > 90% | 21.7 nM | ≤ 100 nM | CC1(Cc2ccc(-c3cccc(C4CCC(=O)NC4=O)c3Cl)cc2)COC1 (stereo not drawn) [Compound 440, 3-(2-chloro-4′-((3-methyloxetan-3-yl)methyl)-[1,1′-biphenyl]-3-yl)piperidine-2,6-dione] |
| 90.5% | > 90% | 14.2 nM | ≤ 100 nM | C[C@@H]1COCC(=O)N1c1ccc(-c2cccc(C3CCC(=O)NC3=O)c2Cl)cc1 (stereo partly drawn) [Compound 441, 3-(2-chloro-4′-((R)-3-methyl-5-oxomorpholino)-[1,1′-biphenyl]-3-yl)piperidine-2,6-dione] |
| 95.8% | > 90% | 34.5 nM | ≤ 100 nM | O=C1CCC(c2cccc(-c3ccc(Cc4cocn4)cc3)c2Cl)C(=O)N1 (stereo not drawn) [Compound 442, 3-(2-chloro-4′-(oxazol-4-ylmethyl)-[1,1′-biphenyl]-3-yl)piperidine-2,6-dione] |
| 99.3% | > 90% | 2.27 nM | ≤ 100 nM | O=C1CCC(c2cccc(-c3ccc(-n4c(C(F)(F)F)cccc4=O)cc3)c2Cl)C(=O)N1 (stereo not drawn) [Compound 443, 3-(2-chloro-4′-(2-oxo-6-(trifluoromethyl)pyridin-1(2H)-yl)-[1,1′-biphenyl]-3-yl)piperidine-2,6-dione] |
| 97.7% | > 90% | 7.1 nM | ≤ 100 nM | O=C1CCC(c2cccc(-c3ccc(-n4cccc(CC(F)F)c4=O)cc3)c2Cl)C(=O)N1 (stereo not drawn) [Compound 444, 3-(2-chloro-4′-(3-(2,2-difluoroethyl)-2-oxopyridin-1(2H)-yl)-[1,1′-biphenyl]-3-yl)piperidine-2,6-dione] |
| 96% | > 90% | 11.5 nM | ≤ 100 nM | O=C1CCC(c2cccc(-c3ccc(N4CCN(CC(F)(F)F)CC4=O)cc3)c2Cl)C(=O)N1 (stereo not drawn) [Compound 445, 3-(2-chloro-4′-(2-oxo-4-(2,2,2-trifluoroethyl)piperazin-1-yl)-[1,1′-biphenyl]-3-yl)piperidine-2,6-dione] |
| 95.2% | > 90% | 9.83 nM | ≤ 100 nM | O=C1CCC(c2cccc(-c3ccc(N4CCN(CC(F)F)CC4=O)cc3)c2Cl)C(=O)N1 (stereo not drawn) [Compound 446, 3-(2-chloro-4′-(4-(2,2-difluoroethyl)-2-oxopiperazin-1-yl)-[1,1′-biphenyl]-3-yl)piperidine-2,6-dione] |
| 61.9% | 60 to 90% | 741 nM | 100 to 1000 nM | O=C1CCC(c2cccc(-c3ccc(Cn4ccccc4=O)nc3)c2Cl)C(=O)N1 (stereo not drawn) [Compound 447, 3-(2-chloro-3-(6-((2-oxopyridin-1(2H)-yl)methyl)pyridin-3-yl)phenyl)piperidine-2,6-dione] |
| 98.7% | > 90% | 1.63 nM | ≤ 100 nM | Cc1ccn(C)c(=O)c1-c1ccc(-c2cccc(C3CCC(=O)NC3=O)c2Cl)cc1 (stereo not drawn) [Compound 448, 3-(2-chloro-4′-(1,4-dimethyl-2-oxo-1,2-dihydropyridin-3-yl)-[1,1′-biphenyl]-3-yl)piperidine-2,6-dione] |
| 97% | > 90% | 6.45 nM | ≤ 100 nM | O=C1CCC(c2cccc(-c3ccc(N4CCCN(CC(F)(F)F)C4=O)cc3)c2Cl)C(=O)N1 (stereo not drawn) [Compound 449, 3-(2-chloro-4′-(2-oxo-3-(2,2,2-trifluoroethyl)tetrahydropyrimidin-1(2H)-yl)-[1,1′-biphenyl]-3-yl)piperidine-2,6-dione] |
| 75.9% | 60 to 90% | 173 nM | 100 to 1000 nM | O=C1CCC(c2cccc(-c3ccc(N4CCCCC4=O)nc3)c2Cl)C(=O)N1 (stereo not drawn) [Compound 450, 3-(2-chloro-3-(6-(2-oxopiperidin-1-yl)pyridin-3-yl)phenyl)piperidine-2,6-dione] |
| 64% | 60 to 90% | 542 nM | 100 to 1000 nM | O=C1CCC(c2cccc(-c3ccc(N4CCCOC4=O)nc3)c2Cl)C(=O)N1 (stereo not drawn) [Compound 451, 3-(2-chloro-3-(6-(2-oxo-1,3-oxazinan-3-yl)pyridin-3-yl)phenyl)piperidine-2,6-dione] |
| 94% | > 90% | 21.5 nM | ≤ 100 nM | O=C1CCC(c2cccc(-c3ccc(N4CCCOC4=O)c(F)c3)c2Cl)C(=O)N1 (stereo not drawn) [Compound 452, 3-(2-chloro-3′-fluoro-4′-(2-oxo-1,3-oxazinan-3-yl)-[1,1′-biphenyl]-3-yl)piperidine-2,6-dione] |
| 97.8% | > 90% | 13.4 nM | ≤ 100 nM | O=C1CCC(c2cccc(-c3ccc(Cc4cccnn4)cc3)c2Cl)C(=O)N1 (stereo not drawn) [Compound 453, 3-(2-chloro-4′-(pyridazin-3-ylmethyl)-[1,1′-biphenyl]-3-yl)piperidine-2,6-dione] |
| 68.3% | 60 to 90% | 140 nM | 100 to 1000 nM | CN1CC(Cc2ccc(-c3cccc(C4CCC(=O)NC4=O)c3Cl)cc2)OC1=O (stereo not drawn) [Compound 454, 3-(2-chloro-4′-((3-methyl-2-oxooxazolidin-5-yl)methyl)-[1,1′-biphenyl]-3-yl)piperidine-2,6-dione] |
| 95.5% | > 90% | 15.2 nM | ≤ 100 nM | O=C1CCC(c2cccc(-c3ccc(Cc4ccon4)cc3)c2Cl)C(=O)N1 (stereo not drawn) [Compound 455, 3-(2-chloro-4′-(isoxazol-3-ylmethyl)-[1,1′-biphenyl]-3-yl)piperidine-2,6-dione] |
| 61% | 60 to 90% | 1560 nM | > 1000 nM | O=C1CCC(c2cccc(-c3ccc(N4Cc5ccccc5C4=O)cc3)c2Cl)C(=O)N1 (stereo not drawn) [Compound 456, 3-(2-chloro-4′-(1-oxoisoindolin-2-yl)-[1,1′-biphenyl]-3-yl)piperidine-2,6-dione] |
| 98.2% | > 90% | 2.78 nM | ≤ 100 nM | O=C1CCC(c2cccc(-c3ccc(N4C(=O)CCC45CCC5)cc3)c2Cl)C(=O)N1 (stereo not drawn) [Compound 457, 3-(2-chloro-4′-(6-oxo-5-azaspiro[3.4]octan-5-yl)-[1,1′-biphenyl]-3-yl)piperidine-2,6-dione] |
| 98.6% | > 90% | 4.79 nM | ≤ 100 nM | O=C1CCC(c2cccc(-c3ccc(-c4cccn(CC(F)(F)F)c4=O)cc3)c2Cl)C(=O)N1 (stereo not drawn) [Compound 458, 3-(2-chloro-4′-(2-oxo-1-(2,2,2-trifluoroethyl)-1,2-dihydropyridin-3-yl)-[1,1′-biphenyl]-3-yl)piperidine-2,6-dione] |
| 84.4% | 60 to 90% | 122 nM | 100 to 1000 nM | O=C1CCC(c2cccc(-c3ccc(N4CCCCC4)cc3)c2Cl)C(=O)N1 (stereo not drawn) [Compound 459, 3-(2-chloro-4′-(piperidin-1-yl)-[1,1′-biphenyl]-3-yl)piperidine-2,6-dione] |
